Data set [1] has as its target T1, AMP-activated protein kinase (AMPK) alpha-1/beta-1/gamma-1 (Homo sapiens) (UniProt P54619+Q9Y478+Q13131). As to the kind of experiment: Activation of C-terminal His tagged human recombinant full length AMPK alpha1/beta1/gamma1 expressed in baculovirus infected Sf9 cells using SAMS peptide as substrate at 100 uM incubated for 60 mins by ADP-Glo luminescence assay relative to control. Background: ADP-Glo first removes unused ATP, then detects ADP through luciferase.

The species entered for data set [2] is Rattus norvegicus. As to the kind of experiment: Antagonist activity at AT1 receptor in rat portal vein assessed as reduction in […] contraction at 10 uM incubated for 1 min relative to control. Also noted: scale not given: the % may be the effect or the level left.
Data set [3] concerns Platelet. As to the kind of experiment: Antiplatelet activity in rabbit platelet rich plasma assessed as inhibition of ADP-induced platelet aggregation at 100 uM relative to control. Details: scale not given: the % may be the effect or the level left. It counts as functional, Oryctolagus cuniculus.
The nature of data set [4]: Ratio of antiplatelet activity for test compound to antiplatelet activity for acetylsalicylic acid in rabbit platelet rich plasma assessed as inhibition of ADP-induced platelet aggregation at 100 uM. It counts as functional, Oryctolagus cuniculus.
In data set [5] the test system is Peritoneal macrophage. As to the kind of experiment: Cytotoxicity against mouse peritoneal macrophages up to 50 uM incubated for 24 hrs by neutral red assay. It counts as cell-based.
For data set [6], the target named is T2, AMP-activated protein kinase (AMPK) alpha-1/beta-1/gamma-1 (Homo sapiens, UniProt P54619+Q13131+Q9Y478). As to the kind of experiment: (§1) Activation of C-terminal His tagged human recombinant full length AMPK alpha1/beta1/gamma1 expressed in baculovirus infected Sf9 cells using SAMS peptide as substrate incubated for 60 mins by ADP-Glo luminescence assay.
T2 sequence (P54619 whole entry): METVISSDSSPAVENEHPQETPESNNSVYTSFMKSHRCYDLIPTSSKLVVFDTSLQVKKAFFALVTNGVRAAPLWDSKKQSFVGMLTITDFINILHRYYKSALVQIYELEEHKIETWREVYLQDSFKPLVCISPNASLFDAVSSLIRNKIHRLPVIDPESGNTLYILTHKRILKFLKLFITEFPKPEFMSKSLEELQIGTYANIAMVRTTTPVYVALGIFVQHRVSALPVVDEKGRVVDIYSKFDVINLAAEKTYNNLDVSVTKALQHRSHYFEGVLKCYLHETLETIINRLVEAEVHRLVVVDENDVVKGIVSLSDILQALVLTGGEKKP
T2 sequence (Q9Y478 whole entry): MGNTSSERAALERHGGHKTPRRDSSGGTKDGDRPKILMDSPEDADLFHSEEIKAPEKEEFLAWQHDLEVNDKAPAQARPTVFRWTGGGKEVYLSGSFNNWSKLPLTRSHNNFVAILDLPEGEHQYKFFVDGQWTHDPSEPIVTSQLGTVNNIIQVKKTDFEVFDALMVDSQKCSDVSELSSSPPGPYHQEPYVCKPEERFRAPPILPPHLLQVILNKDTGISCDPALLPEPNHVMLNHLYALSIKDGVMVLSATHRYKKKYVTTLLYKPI
T2 sequence (Q13131 whole entry): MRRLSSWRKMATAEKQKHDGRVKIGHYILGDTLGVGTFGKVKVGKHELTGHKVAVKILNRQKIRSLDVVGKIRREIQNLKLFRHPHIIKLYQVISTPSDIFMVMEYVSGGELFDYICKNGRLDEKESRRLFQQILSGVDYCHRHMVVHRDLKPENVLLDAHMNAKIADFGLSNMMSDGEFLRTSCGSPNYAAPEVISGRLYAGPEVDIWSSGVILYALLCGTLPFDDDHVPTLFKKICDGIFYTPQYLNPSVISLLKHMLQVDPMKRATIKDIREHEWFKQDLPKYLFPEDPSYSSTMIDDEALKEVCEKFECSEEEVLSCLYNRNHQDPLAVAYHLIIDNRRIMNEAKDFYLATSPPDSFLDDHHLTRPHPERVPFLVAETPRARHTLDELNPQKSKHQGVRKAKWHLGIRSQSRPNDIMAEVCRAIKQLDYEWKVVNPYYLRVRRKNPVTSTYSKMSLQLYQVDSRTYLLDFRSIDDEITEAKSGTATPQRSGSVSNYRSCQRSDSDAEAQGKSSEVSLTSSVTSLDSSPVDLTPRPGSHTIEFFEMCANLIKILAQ
Data set [7] can be described thus: Inhibition of AGE formation assessed as reduction in bovin serum albumin glycation at 1 mM incubated for 24 hrs in presence of glucose by spectrophotometric analysis relative to control. Type of data set: functional.
Data set [8] concerns Peritoneal macrophage. The experiment in a line: Anti-inflammatory activity in mouse peritoneal macrophages assessed as inhibition of LPS-induced NO production incubated for 22 hrs by Griess reagent based colorimetric assay. It counts as functional, cell-based.
Data set [9] has as its system Peritoneal macrophage. The experiment in a line: Cytotoxicity against mouse peritoneal macrophages up to 50 uM incubated for 24 hrs by MTT assay. Type of data set: cell-based. Background: Formazan colour is commonly taken as a measure of viable cells.
A short description of data set [10]: Solubility of the compound in PBS at pH 7.4. Type of data set: physicochemical.
Data set [11] has as its target T1, AMP-activated protein kinase (AMPK) alpha-1/beta-1/gamma-1 (Homo sapiens). As to the kind of experiment: Activation of C-terminal His tagged human recombinant full length AMPK alpha1/beta1/gamma1 expressed in baculovirus infected Sf9 cells assessed as enzyme activation using SAMS peptide as substrate at 100 uM incubated for 60 mins by ADP-Glo luminescence assay relative to control.

For data set [12], the target named is AMP-activated protein kinase, AMPK. The experiment in a line: Activation of recombinant human AMPK expressed in Sf9 cells using SAMS peptide as substrate preincubated for 30 mins followed by substrate addition and measured after 60 mins by fluorescence based assay.
For data set [13], the target named is 5'-AMP-activated protein kinase. As to the kind of experiment: Activation of recombinant mouse AMPK expressed in Sf9 cells using SAMS peptide as substrate preincubated for 30 mins followed by substrate addition and measured after 60 mins by fluorescence based assay.
The nature of data set [14]: Activation of recombinant rhesus monkey AMPK expressed in Sf9 cells using SAMS peptide as substrate preincubated for 30 mins followed by substrate addition and measured after 60 mins by fluorescence based assay. Also noted: species or system Macaca mulatta.
Data set [15] in a line: Inhibition of AGE formation assessed as reduction in reduction in bovin serum albumin glycation at 1 mM incubated for 24 hrs in presence of glucose, Cu2+ by spectrophotometric analysis relative to control. It counts as functional.
A short description of data set [16]: Inhibition of AGE formation assessed as reduction in reduction in bovin serum albumin glycation incubated for 24 hrs in presence of glucose by spectrophotometric analysis. Type of data set: functional.
Data set [17] is described as follows: Inhibition of AGE formation assessed as reduction in reduction in bovin serum albumin glycation incubated for 24 hrs in presence of glucose, Cu2+ by spectrophotometric analysis. Type of data set: functional.
The target of data set [18] is T1, AMP-activated protein kinase (AMPK) alpha-1/beta-1/gamma-1 (Homo sapiens). The data set is described as §1.
A short description of data set [19]: Ratio of inhibition of formation in AGE for test compound to inhibition of formation in AGE for aminoguanidine at 1 mM incubated for 24 hrs in presence of glucose by spectrophotometric analysis.
Data set [20] in a line: Binding affinity to glyoxal assessed as reduction in glyoxal by GirardT reagent based spectrophotometric method.
Data set [21] has as its target T2, AMP-activated protein kinase (AMPK) alpha-1/beta-1/gamma-1. As to the kind of experiment: Activation of human AMPK alpha1/beta1/gamma1 expressed in baculovirus/Sf9 cells using SAMS peptide as substrate incubated for 15 mins by in presence of 33P-ATP by liquid scintillation counting method.

The structures appear in SMILES notation. Active and inactive are the calls of the source. The rule behind the calls is not given here. Some results are limits rather than exact numbers.

T1 sequence (P54619 whole entry): as the sequence (P54619 whole entry) above
T1 sequence (Q13131 whole entry partner): as the sequence (Q13131 whole entry) above
T1 sequence (Q9Y478 2-270 partner limits assumed): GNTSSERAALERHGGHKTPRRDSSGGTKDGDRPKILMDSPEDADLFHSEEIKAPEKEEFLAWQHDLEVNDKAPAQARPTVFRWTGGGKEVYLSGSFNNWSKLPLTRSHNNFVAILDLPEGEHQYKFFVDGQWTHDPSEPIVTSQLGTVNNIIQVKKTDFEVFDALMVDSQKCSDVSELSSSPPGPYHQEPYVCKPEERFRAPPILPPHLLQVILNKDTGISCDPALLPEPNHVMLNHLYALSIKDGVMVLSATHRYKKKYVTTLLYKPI

On to `Br.c1ccc(-c2ccc(CN3C4=NCCCCN4c4ccccc43)cc2)cc1`, for which the Activity came to 12.3% in data set [1], 13.5% in data set [2] and 98.7% in [3]. In addition, the Ratio in data set [4] was 2.1 - 3.6.
For orientation: inhibition means the drop in the measured response relative to a control, in per cent. As usually defined, the IC50 is the concentration that inhibits the measured activity by half. A word on the solubility: it is how much of the substance goes into solution per volume. In the case of `Br.N#Cc1ccccc1-c1ccc(CN2C3=NCCCN3c3ccccc32)cc1`, the Activity entry in [5] was “Non-Toxic”; in data set [1], 197%; in data set [2] it was 40.4%; in data set [9], “Non-Toxic”. The EC50 in data set [6] (read-out: EC50) worked out at 0.34 µM. The inhibition in data set [7] is -9.2%. For the same compound, the IC50 in data set [8] was 4.96 µM. The solubility in data set [10] was > 500 µM. Further, the fold change (FC) in data set [11] came out at 2.81.
For the compound `O[C@@H]1CO[C@H]2[C@@H]1OC[C@H]2Oc1nc2nc(-c3ccc(-c4ccccc4)cc3)c(Cl)cc2[nH]1`, the EC50 in data set [12], in [13] and in data set [14] was 0.001 to 0.06 µM throughout.
For the compound `CCCCc1nc(Cl)c(CO)n1Cc1ccc(-c2ccccc2-c2nnn[nH]2)cc1` [LOSARTAN], the inhibition in data set [15] and in [7] was 51.4% throughout. Also, the Activity in [2] was determined as 99%. Also, the IC50 in data set [16] is > 1000 µM; in [17] (read-out: IC50), 782 µM.
Take `Br.CCOC(=O)c1ccc(CN2C3=NCCN3c3ccccc32)cc1`: the results for the Activity in data set [1], in [2] and in [3] were 0.6%, 5.6% and 76.3%, respectively. Besides, the inhibition in data set [7] came to 17.5%. For the same compound, the Ratio in [4] is 2.1 - 3.6.
For `Br.O=C(O)c1ccc(CN2C3=NCCN3c3ccccc32)cc1`, in that order: 3.7%, 11.1%, 57%, 19.2% and 2.1 - 3.6.
On to `Br.N#Cc1ccccc1-c1ccc(CN2C3=NCCCCN3c3ccccc32)cc1`, for which the Activity entry is “Non-Toxic” in data set [5], 293% in data set [1], 0% in data set [2] and “Non-Toxic” in data set [9]. Further, the EC50 in [6] (read-out: EC50) came out at 0.44 µM. In [10], the solubility was > 500 µM. In data set [11], the fold change (FC) came out at 4.
Regarding `Br.COC(=O)c1ccccc1-c1ccc(CN2C3=NCCCCN3c3ccccc32)cc1`, the Activity was -11.3% in data set [1], 33.3% in [2] and 97.4% in [3]. For the same compound, in data set [7], the inhibition was 17.9%. The Ratio in data set [4] is given as 2.1 - 3.6.
For `O=C(O)c1ccccc1-c1ccc(CN2C3=NCCCN3c3ccccc32)cc1`, the Activity in data set [1] was -16.2%; in [2], 7.5%. Further, in data set [7], the inhibition was 38.5%.
Regarding `Br.N#Cc1ccc(C(=O)CN2C3=NCCN3c3ccccc32)cc1`, the inhibition in data set [15] was 25.4%; in data set [7], 72.1%. Moreover, the Activity in [1] turned out to be 25.5%; in data set [2], 0%; in [3] it was 6.6%. The pEC50 result in [18] is “inactive”. In data set [19], the Ratio stood at 1.8. In addition, the IC50 was 422 µM in data set [16] and > 1000 µM in data set [17] (read-out: IC50). Moreover, the solubility in data set [10] is > 500 µM. Besides, in [11], the “fold change (FC)” value was “inactive”. Besides, in data set [20], the outcome was Active.
For `N=C(N)NN` [PIMAGEDINE], the inhibition in data set [7] amounted to 57.8%. The IC50 in data set [16] is 765 µM; in [17] it was “Not Active”. The result in data set [20] was Active.
Consider `Br.N#Cc1ccccc1-c1ccc(CN2C3=NCCN3c3ccccc32)cc1`, for which the Activity in [1] amounted to 163%; in data set [2], 21.9%; in data set [3] it was 57.1%. The EC50 in [6] (read-out: EC50) was 109 µM; in data set [6] (read-out: pEC50 (converted)) it was 25.1 µM. For the same compound, the inhibition in [7] stood at 8.6%. In data set [8], the IC50 is 5.32 µM. Also, in [4], the Ratio was 2.1 - 3.6. For the same compound, the solubility in data set [10] was > 500 µM. The fold change (FC) in [11] worked out at 1.56.
As for `CC(=O)Oc1ccccc1C(=O)O` [ASPIRIN], the Activity in [3] was found to be 27.8%.
Regarding `COC(=O)c1ccccc1-c1ccc(CN2C3=NCCN3c3ccccc32)cc1`, the Activity in [1] was 3.5%; in [2], -5.7%. For the same compound, the inhibition in [7] was found to be 0.4%.
With `Br.c1ccc(-c2ccc(CN3C4=NCCCN4c4ccccc43)cc2)cc1`, the Activity in data set [1] is 16%; in [2], 14.6%; in data set [3], 95.2%. Besides, the inhibition in data set [7] stood at 9.9%. Also, the Ratio in [4] is reported as 2.1 - 3.6.
In the case of `COC(=O)c1ccccc1-c1ccc(CN2C3=NCCCN3c3ccccc32)cc1`, the Activity in [1] turned out to be 21.7%; in data set [2] it was 5.9%. Moreover, in [7], the inhibition was determined as 14.9%.
For `O=C(O)c1ccccc1-c1ccc(CN2C3=NCCCCN3c3ccccc32)cc1`, in that order: -36.4%, 20% and 30.8%.
Consider `C[C@@H]1C[C@H]2[C@@H]3CCC4=CC(=O)C=C[C@]4(C)[C@@]3(F)[C@@H](O)C[C@]2(C)[C@@]1(O)C(=O)CO` [DEXAMETHASONE], for which, in data set [8], the IC50 was 0.15 µM.
As for `Cc1ccc(OCCSc2ncccn2)c(Br)c1`, the Activity in data set [1] was 157%. The EC50 in data set [6] (read-out: EC50) amounted to 0.55 µM.
On to `N#Cc1c(O)c2c(-c3ccc(-c4ccccc4O)cc3)csc2[nH]c1=O`, for which, in [21], the EC50 was 0.8 µM.
For the compound `Br.c1ccc(-c2ccc(CN3C4=NCCN4c4ccccc43)cc2)cc1`, the values for the Activity in [1], in [2] and in data set [3] were 54.2%, 5.2% and 89.2%, respectively. Further, the inhibition in [7] was 22.5%. Besides, the Ratio in data set [4] is given as 2.1 - 3.6.
With `O=C(O)c1ccccc1-c1ccc(CN2C3=NCCN3c3ccccc32)cc1`, the Activity was 6.9% in [1] and -1.7% in data set [2]. In addition, the inhibition in data set [7] came out at 7.7%.

The record behind these values is ChEMBL document CHEMBL4346753, “Towards multi-target antidiabetic agents: Discovery of biphenyl-benzimidazole conjugates as AMPK activators” (Bioorg Med Chem Lett, 2019).
